Assay results reported in patent US11081236B2, “Diagnostic and therapeutic methods for the treatment of breast cancer” (GENENTECH, INC., priority 2018, dated 2021).

How the values were obtained:
Format in all cases: cell-based
CAMA1 = experiment: RNA sequencing after E2 or DMSO treatment, CAMA1
Experimental: (§1) To derive a transcriptional signature of ER pathway activity, RNA sequencing was performed on seven breast cancer cell lines following treatment with either DMSO or 1 μM estradiol (E2) for 24 hours. Briefly, RNA libraries for cell lines were made with TRUSEQ® RNA sample preparation kit (ILLUMINA®) according to the manufacturer's protocol. The libraries were sequenced on an ILLUMINA® Hi Seq 2000, using 1-4 lanes per cell line. RNA sequencing (RNA-seq) data were analyzed with HTSeqGenie (R package version 3.14.0) in BioConductor (Huber et al. Nature Methods. 112:115-21, 2015) as follows: reads were trimmed to 75 base pairs (bp), filtered for quality and rRNA/adapter contamination, and aligned to the reference genome GRCh38 using GSNAP (Wu et al. Bioinforma Oxf Engl. 26:873-81, 2010). Gene expression was quantified as Reads per Kilobase of exon model per Million mapped reads normalized by size factor (nRPKM), defined as number of reads aligning to a gene in a sample/(total number of uniquely mapped reads for that sample x gene length x size factor). Genes without gene symbol and genes of uncertain function (LOC and Corf symbols) were excluded.

MDA-MB-330 = experiment: RNA sequencing after E2 or DMSO treatment, MDA-MB-330
Experimental: as §1

BT474 = experiment: RNA sequencing after E2 or DMSO treatment, BT474
Experimental: as §1

HCC1500 = experiment: RNA sequencing after E2 or DMSO treatment, HCC1500
Experimental: as §1

[1] = gene BAMBI, 1 μM E2 24 hours vs DMSO
[2] = gene BCAS1, 1 μM E2 24 hours vs DMSO
[3] = gene CCNG2, 1 μM E2 24 hours vs DMSO
[4] = gene DDEE4, 1 μM E2 24 hours vs DMSO
[5] = gene EGLN3, 1 μM E2 24 hours vs DMSO
[6] = gene FAM1718, 1 μM E2 24 hours vs DMSO
[7] = gene GRM4, 1 μM E2 24 hours vs DMSO
[8] = gene IL1R1, 1 μM E2 24 hours vs DMSO
[9] = gene LIPH, 1 μM E2 24 hours vs DMSO
[10] = gene NBEA, 1 μM E2 24 hours vs DMSO
[11] = gene PNPLA7, 1 μM E2 24 hours vs DMSO
[12] = gene PSCA, 1 μM E2 24 hours vs DMSO
[13] = gene SEMASE, 1 μM E2 24 hours vs DMSO
[14] = gene SSPO, 1 μM E2 24 hours vs DMSO
[15] = gene STON1, 1 μM E2 24 hours vs DMSO
[16] = gene TGFB3, 1 μM E2 24 hours vs DMSO
[17] = gene TP53INP1, 1 μM E2 24 hours vs DMSO
[18] = gene TP53INP2, 1 μM E2 24 hours vs DMSO

C[C@]12CC[C@@H]3c4ccc(O)cc4CC[C@H]3[C@@H]1CC[C@@H]2O [Compound E2, estradiol]
Log2 FC E2 vs no E2: BAMBI (CAMA1; [1]): −1.072 | Log2 FC E2 vs no E2: BCAS1 (CAMA1; [2]): −2.311 | Log2 FC E2 vs no E2: CCNG2 (CAMA1; [3]): −2.094 | Log2 FC E2 vs no E2: DDEE4 (CAMA1; [4]): −2.737 | Log2 FC E2 vs no E2: EGLN3 (CAMA1; [5]): −1.533 | Log2 FC E2 vs no E2: FAM1718 (CAMA1; [6]): −2.271 | Log2 FC E2 vs no E2: GRM4 (CAMA1; [7]): −2.021 | Log2 FC E2 vs no E2: IL1R1 (CAMA1; [8]): −1.686 | Log2 FC E2 vs no E2: LIPH (CAMA1; [9]): −1.583 | Log2 FC E2 vs no E2: NBEA (CAMA1; [10]): −1.550 | Log2 FC E2 vs no E2: PNPLA7 (CAMA1; [11]): −2.068 | Log2 FC E2 vs no E2: PSCA (CAMA1; [12]): −3.517 | Log2 FC E2 vs no E2: SEMASE (CAMA1; [13]): −1.374 | Log2 FC E2 vs no E2: SSPO (CAMA1; [14]): −2.298 | Log2 FC E2 vs no E2: STON1 (CAMA1; [15]): −2.609 | Log2 FC E2 vs no E2: TGFB3 (CAMA1; [16]): −1.444 | Log2 FC E2 vs no E2: TP53INP1 (CAMA1; [17]): −3.177 | Log2 FC E2 vs no E2: TP53INP2 (CAMA1; [18]): −2.068 | Log2 FC E2 vs no E2: BAMBI (MDA-MB-330; [1]): −1.352 | Log2 FC E2 vs no E2: BCAS1 (MDA-MB-330; [2]): −1.772 | Log2 FC E2 vs no E2: CCNG2 (MDA-MB-330; [3]): −1.009 | Log2 FC E2 vs no E2: DDEE4 (MDA-MB-330; [4]): −1.321 | Log2 FC E2 vs no E2: EGLN3 (MDA-MB-330; [5]): −2.785 | Log2 FC E2 vs no E2: FAM1718 (MDA-MB-330; [6]): −2.790 | Log2 FC E2 vs no E2: GRM4 (MDA-MB-330; [7]): −2.281 | Log2 FC E2 vs no E2: IL1R1 (MDA-MB-330; [8]): −0.941 | Log2 FC E2 vs no E2: LIPH (MDA-MB-330; [9]): −1.737 | Log2 FC E2 vs no E2: NBEA (MDA-MB-330; [10]): −1.044 | Log2 FC E2 vs no E2: PNPLA7 (MDA-MB-330; [11]): −1.084 | Log2 FC E2 vs no E2: PSCA (MDA-MB-330; [12]): −2.529 | Log2 FC E2 vs no E2: SEMASE (MDA-MB-330; [13]): −2.427 | Log2 FC E2 vs no E2: SSPO (MDA-MB-330; [14]): −1.383 | Log2 FC E2 vs no E2: STON1 (MDA-MB-330; [15]): −1.081 | Log2 FC E2 vs no E2: TGFB3 (MDA-MB-330; [16]): −1.111 | Log2 FC E2 vs no E2: TP53INP1 (MDA-MB-330; [17]): −1.304 | Log2 FC E2 vs no E2: TP53INP2 (MDA-MB-330; [18]): −1.210 | Log2 FC E2 vs no E2: BAMBI (BT474; [1]): −1.153 | Log2 FC E2 vs no E2: BCAS1 (BT474; [2]): −1.110 | Log2 FC E2 vs no E2: CCNG2 (BT474; [3]): −0.935 | Log2 FC E2 vs no E2: DDEE4 (BT474; [4]): −0.862 | Log2 FC E2 vs no E2: EGLN3 (BT474; [5]): −0.118 | Log2 FC E2 vs no E2: FAM1718 (BT474; [6]): −1.279 | Log2 FC E2 vs no E2: GRM4 (BT474; [7]): −1.883 | Log2 FC E2 vs no E2: IL1R1 (BT474; [8]): −1.490 | Log2 FC E2 vs no E2: LIPH (BT474; [9]): −0.804 | Log2 FC E2 vs no E2: NBEA (BT474; [10]): −0.346 | Log2 FC E2 vs no E2: PNPLA7 (BT474; [11]): −1.427 | Log2 FC E2 vs no E2: PSCA (BT474; [12]): −1.956 | Log2 FC E2 vs no E2: SEMASE (BT474; [13]): −1.101 | Log2 FC E2 vs no E2: SSPO (BT474; [14]): −1.739 | Log2 FC E2 vs no E2: STON1 (BT474; [15]): −0.650 | Log2 FC E2 vs no E2: TGFB3 (BT474; [16]): −0.304 | Log2 FC E2 vs no E2: TP53INP1 (BT474; [17]): −1.496 | Log2 FC E2 vs no E2: TP53INP2 (BT474; [18]): −2.069 | Log2 FC E2 vs no E2: BAMBI (HCC1500; [1]): −1.438 | Log2 FC E2 vs no E2: BCAS1 (HCC1500; [2]): −2.105 | Log2 FC E2 vs no E2: CCNG2 (HCC1500; [3]): −1.525 | Log2 FC E2 vs no E2: DDEE4 (HCC1500; [4]): −1.865 | Log2 FC E2 vs no E2: EGLN3 (HCC1500; [5]): −2.504 | Log2 FC E2 vs no E2: FAM1718 (HCC1500; [6]): −0.683 | Log2 FC E2 vs no E2: GRM4 (HCC1500; [7]): −1.071 | Log2 FC E2 vs no E2: IL1R1 (HCC1500; [8]): −1.943 | Log2 FC E2 vs no E2: LIPH (HCC1500; [9]): −1.384
